Data: patent US9095541B2, “Brain tumor targeting peptides and methods” (Arch Cancer Therapeutics, Inc., priority 2009, dated 2015)
Peptide text beside a SMILES is read from it.

Tests used:
U87R xenografts = experiment: In vivo phage homing, U87R xenografts, anti-M13 immunohistochemistry; parameters: species or system SCID mice; conditions: H10 phage perfused in mice carrying U87R tumors; signal within tumor mass or peritumoral; method uses mannitol pretreatment
Experimental: FIG. 6A illustrates the in vivo homing capability of H10. Invasive U87R or non-invasive U87T cells were grown in the right brain hemisphere of SCID mice. Once tumors were established, mice were anaesthetized and perfused with H10 phage for 10 minutes. Unbound phage was flushed from the system with PBS. Brains were cryosectioned and immunohistochemically stained for M13 phage or human nuclear antigen (hNA).
The ability of the selected phage or their corresponding peptides was examined for their ability to ‘home’ to their respective U87R or BTIC glioma cell targets in vivo, according to their ability to detect glioma cells in an orthotopic xenograft model. In the case of H10, SCID mice carrying U87R or U87T xenografts were injected with the test phage for ten minutes, which was subsequently perfused with PBS to remove any unbound particles.
3×10^4 U87T cells, 3×10^5 U87R cells or 5×10^4 BTICs were injected in a 3 μL volume into one brain hemisphere of a SCID mouse and allowed to grow for 4, 6 or 12 weeks respectively. […]
Serial sections were fixed with cold acetone, and rehydrated through an ethanol gradient. […] Avidin-biotin peroxidase complexes were then formed using the VECTASTAIN Elite ABC kit (Vector Laboratories) and detected by addition of […] […]

[1] = tested on: U87MG cells transfected with p75^NTR; experiment: Transwell migration assay, p75NTR-transfected U87MG; assay type: cell-based, human; conditions: in vitro invasion assay
Experimental: The membranes of 8 μm pore sized transwell inserts (Corning Costar) were coated with brain-like matrix (720 μL of 3 mg/mL collagen I (PureCol); 180 μL of 10×DMEM (Invitrogen); 9 uL of 1 mg/mL human plasma fibronectin (Sigma); 9 uL of 1 mg/mL chondroitin sulfate proteoglycans (Chemicon); 16 μL of 0.15 mg/mL laminin (Chemicon)) on both sides, allowed to dry, then plated with 5×10^4 cells in 100 μL media in the upper chamber and 500 μL media in the lower chamber. Inclusion of collagen was essential to see the inhibitory effect of H10 (FIG. S4). 3×10^10 pfu of test phage were added to the upper chambers containing the cells, which were incubated for 4 hours under normal culture conditions. At the end of the incubation, the media was aspirated and the cells were fixed and stained in 1% crystal violet in 95% ethanol for one minute. Transwells were rinsed in PBS, then cells on the upper membrane surfaces were removed with a cotton swab. Cells which had migrated to the undersurface of the membranes were counted by light microscopy, and the sum of cells in five microscopic fields was recorded for each membrane.

[2] = tested on: lipid raft marker GM1 in U87R cells; assay type: cell-based, human; conditions: cholesterol oxidase, Alexa 555-cholera toxin B subunit, 120 minutes
p75^NTR in U87R cells = experiment: Sucrose/iodixanol density gradient fractionation with Western blot for p75NTR; assay type: cell-based, human; conditions: U87R cells on collagen, treated 2 hours, 10-40% sucrose/iodixanol gradient
Description: White arrows indicate higher molecular weight p75^NTR-containing complexes. Lines underneath the figure indicate the fractions in which common organelles are generally found;
The p75^NTR can be detected differentially in lipid rafts isolated with specific detergents, and must be proteolytically processed to trigger cell migration in glioma cells. Thus, it is probable that p75^NTR is also cleaved within a lipid raft after endocytosis. To determine if H10 may be having an impact on endosomally located p75^NTR, cells were hypertonically lysed (to keep vesicles and organelles at least partially intact) and separated on a 10-40% sucrose/iodixanol gradient from which fractions were individually collected.
Cells were scraped into 1 mL of 0.25M sucrose, 140 mM NaCl, 1 mM EDTA, 20 mM Tris-HCl, pH 8.0, and dounce homogenized until cells were no longer visible by microscopy. Debris was pelleted for 5 min, 800×g and the supernatant was loaded on top of a 10 mL continuous 10-40% gradient, prepared by the dilution of OptiPrep (Sigma, 60% iodixanol) with 0.25M sucrose, 140 mM NaCl, 3 mM EDTA, 60 mM Tris-HCl, pH8.0. Gradients were spun in a swinging bucket rotor at 48000×g for 18 hrs and 0.5 mL fractions were collected. Total protein was precipitated from each fraction by the addition of 2 volumes of −20° C. […]

[3] = tested on: transferrin or its receptor (markers of clathrin-coated vesicles); experiment: FITC-transferrin uptake and transferrin receptor gradient fractionation; assay type: cell-based, human; conditions: U87p75 and U87R cells, 2 hours
Experimental: FIG. 9A are confocal images of p75^NTR transfected glioma cells (U87p75) imaged for uptake of FITC-transferrin.
Cells were lysed, fractioned using an iodixanol gradient, and Western Blot analysis for the transferrin receptor was performed;
Cells were scraped into 1 mL of 0.25M sucrose, 140 mM NaCl, 1 mM EDTA, 20 mM Tris-HCl, pH 8.0, and dounce homogenized until cells were no longer visible by microscopy. Debris was pelleted for 5 min, 800×g and the supernatant was loaded on top of a 10 mL continuous 10-40% gradient, prepared by the dilution of OptiPrep (Sigma, 60% iodixanol) with 0.25M sucrose, 140 mM NaCl, 3 mM EDTA, 60 mM Tris-HCl, pH8.0. Gradients were spun in a swinging bucket rotor at 48000×g for 18 hrs and 0.5 mL fractions were collected. Total protein was precipitated from each fraction by the addition of 2 volumes of −20° C. 20 mM DTT, 15% TCA, storage at −20° C. overnight, followed by centrifugation at 4° C. for 20 minutes. Pellets were resuspended in 20 μL 1M Tris and 20 μL 2× Laemmli buffer. The entire volume was loaded into a single well for SDS-PAGE resolution and western transfer.

[4] = Water solubility of peptide; assay type: physicochemical; conditions: three N-terminal residues (KKG) added
Description: In one aspect, the invention includes a peptide composition for targeting either (i) a highly invasive glioma cells (HIGC) subtype of human GBM cells, e.g., the U87R subtype of U87GM cells, or (ii) a brain tumor initiating cell (BTIC) subtype of human GBM cells, as characterized above. The peptide in the composition is 12-20 amino acid residues in length and contains one of the sequences identified as SEQ ID NOS-1-17, or a sequence that is at least 90% homologous with the given sequence. That is, the peptide has the same sequence as one of SEQ ID NOS: 1-17, or a sequence that differs from the given sequence by at most one amino acid residue. The peptide may contain only the given sequence of amino acids, or may contain additional N- and/or C-terminal residues up to a total of 20 residues. Thus, for example, the peptide corresponding to SEQ ID NO: 7, […] (H10), may have this exact sequence, the same sequence but with a single amino acid substitution, addition or deletion at any of the 12 residue positions, or a peptide having a total of up to eight additional residues at one or both of the N- or C-terminals.

[5] = tested on: BTIC lines (neurospheres); experiment: Staining with biotin-labeled synthetic peptide, confocal, BTIC neurospheres; assay type: binding, human; conditions: neurospheres stained in suspension
Experimental: (§1) Binding specificity of the 7A peptide was assessed with non-target (U87MG; NSC) and target (BTIC) cells using a biotinylated 7A peptide (red) followed by confocal imaging.
(§2) To confirm the preferential binding of 7A to the BTICs rather than the cells used for subtraction, neurospheres and U87MG cells were stained in suspension with biotin-labeled synthetic peptide. […] Examination of the interaction of all selected peptides across a panel of BTIC lines underscored the heterogeneity within each cell population, and established a platform for correlating the ability to bind particular peptide sequences with either cell behavior or patient outcome.
(§3) Adherent cells: 13 mm coverslips were coated with neutralized 3 mg/mL Collagen I (PureCol), allowed to dry, then plated with test cells at 1×10^4/mL, 0.5 mL volume and allowed to equilibrate 20 minutes under normal culture conditions. Coverslips were fixed for 10 minutes in 3% formaldehyde in PBS, washed, then incubated in biotinylated peptide (3 mM stock) or primary antibody at a 1:100 dilution in 2% BSA/0.02% Tween 20 in PBS for 1 hour at room temperature. After washing in PBS, secondary antibody or streptavidin-Alexa 568 was applied at a dilution of 1:250 for 1 hour before coverslips were washed and mounted with DAKO mounting media with antifade. […]

U87MG cells = experiment: Staining with biotin-labeled synthetic peptide, confocal, U87MG; assay type: binding, human
Experimental: as §1, §2, §3

normal stem cells (NSC) = experiment: Staining with biotin-labeled synthetic peptide, confocal, normal stem cells; assay type: binding; conditions: not tumorigenic cells
Experimental: as §1, §2
Suspended neurospheres: 50 μL of densely suspended neurospheres were stained as described above, except in suspension in an eppendorf tube. The stained neurospheres were mounted in a drop of DAKO mounting media under a coverslip.

[6] = tested on: BTIC 12 and BTIC 25 xenografts; experiment: In vivo phage homing, BTIC xenografts, anti-phage immunohistochemistry; parameters: species or system SCID mice; conditions: phage perfused 10 minutes
Experimental: (§4) Cells were injected into the right brain hemisphere of SCID mice and allowed to establish for three months. Mice were then perfused with 7A or A1 (random control) phage for 10 minutes. […] 7A homing was not observed in mice bearing tumors generated from the U251N cell line.
(§5) 3×10^4 U87T cells, 3×10^5 U87R cells or 5×10^4 BTICs were injected in a 3 μL volume into one brain hemisphere of a SCID mouse and allowed to grow for 4, 6 or 12 weeks respectively. The mice were anaesthetized, then treated with 150 μL of 20% (w/v) mannitol for 15 minutes before injecting 5×10^9 pfu into the brain via the carotid. After allowing the phage to circulate for 10 minutes, unbound phage were flushed out of the circulatory system with 15 mL of PBS injected into the left ventricle after the right atrium was clipped. The brains were harvested, immediately frozen on dry ice and embedded in OCT for sectioning.
(§6) Serial sections were fixed with cold acetone, and rehydrated through an ethanol gradient. Endogenous peroxidases in the sections were inactivated with 0.075% H2O2/methanol, and nonspecific binding was blocked with 10% normal goat serum in PBS. […] Avidin-biotin peroxidase complexes were then formed using the VECTASTAIN Elite ABC kit (Vector Laboratories) and detected by addition of […] […]

[7] = tested on: U251N human glioblastoma line xenografts; experiment: In vivo phage homing, U251N xenografts; parameters: species or system SCID mice; conditions: phage perfused, anti-phage immunohistochemistry
Experimental: as §4, §5, §6

[8] = tested on: implanted GBM tumor from the BT025 cell line; experiment: In vivo targeting of fluorescent peptide to implanted BT025 tumor, fluorescence microscopy of brain sections; parameters: species or system mice
Experimental: In the studies shown in FIGS. 13A and 13B, brain tumors were implanted in mice with a patient-derived BTIC cell line BT025 identified as above by its binding to the 7A peptide. After tumor growth from the implanted cells, the tumors were removed, sectioned and stained for microscopic visualization. In the studies shown in FIGS. 14-19, a fluorescent peptide was administered intravenously, either by intracorotid injection or via tail vein into mice having an implanted GBM tumor from the BT025 cell line (FIGS. 14-17) or the U87MG cell line (FIGS. 18 and 19), and after localization of the peptide, the animal were sacrificed and their brain tumors removed for sectioning and visualization by fluorescence microscopy.
The peptide was administered to the mouse via intracarotid injection and allowed to circulate for approximately half an hour to allow clearance of background signal before the mouse was sacrificed and the brain removed for imaging using an Olympus OV100 whole mouse imaging system. By non-magnified inspection, the large outgrowth of the tumor is obvious.
FIGS. 14B and 14C are lower and higher magnification photomicrographs of a thin section taken from the brain in FIG. 14A after it was bisected close to the tumor implantation site and stained for human nuclear antigen (green) and total DNA (blue) to outline the positioning of the cells. The red peptide signal is visible on cells immediately adjacent to the main tumor mass as well as spread diffusely in the surrounding tissue.

[9] = tested on: BTIC isolates (BTIC 12, 25, 42, 50); experiment: Biopanning of phage display library against a mixture of BTIC isolates, sequencing of subclones; conditions: BTIC-binding phage subclones; given as n/50 subclones screened

CC[C@H](C)[C@H](NC(=O)[C@H](CO)NC(=O)[C@H](CC(N)=O)NC(=O)[C@@H](N)[C@@H](C)O)C(=O)N[C@@H](Cc1c[nH]c2ccccc12)C(=O)N[C@@H](Cc1ccc(O)cc1)C(=O)N[C@H](C(=O)N[C@@H](C)C(=O)N1CCC[C@H]1C(=O)N[C@@H](Cc1ccc(O)cc1)C(=O)N[C@@H](CCSC)C(=O)N[C@@H](Cc1ccccc1)C(=O)O)[C@@H](C)O [H10] (H-TNSIWYTAPYMF-OH; N-terminus and C-terminus assumed)
crossing of the blood brain barrier (BBB) (U87R xenografts): has the ability to cross the blood brain barrier

cholesterol oxidase
cell migration of U87p75 glioma cells [1]: significantly inhibited cell migration
GM1 localisation [2]: accumulate within the cells, particularly at the plasma membrane
distribution of p75^NTR forms in density gradient fractions (p75^NTR in U87R cells): shift of higher molecular weight forms of p75^NTR into the denser gradient fractions
intracellular localization or gradient fractionation of transferrin or its receptor [3]: no effect

CC[C@H](C)[C@H](NC(=O)[C@H](CO)NC(=O)[C@H](CC(N)=O)NC(=O)[C@@H](NC(=O)CNC(=O)[C@H](CCCCN)NC(=O)[C@@H](N)CCCCN)[C@@H](C)O)C(=O)N[C@@H](Cc1c[nH]c2ccccc12)C(=O)N[C@@H](Cc1ccc(O)cc1)C(=O)N[C@H](C(=O)N[C@@H](C)C(=O)N1CCC[C@H]1C(=O)N[C@@H](Cc1ccc(O)cc1)C(=O)N[C@@H](CCSC)C(=O)N[C@@H](Cc1ccccc1)C(=O)O)[C@@H](C)O [modified H10] (H-KKGTNSIWYTAPYMF-OH; N-terminus and C-terminus assumed)
water solubility relative to H10 peptide [4]: substantially more water soluble

PSPHRQRQHILR (synthetic BTIC targeting peptide) [7A]
binding of peptide to BTICs [5]: high percentage of positive cells within the neurosphere
binding of peptide to U87MG cells (U87MG cells): predominantly negative
binding of peptide to normal stem cells (normal stem cells (NSC)): predominantly negative
in vivo phage staining of BTIC xenografts [6]: only a subset of cells within the main tumor masses of BTIC 12 and 25 showed positive staining
in vivo phage staining of U251N xenografts [7]: no staining was detected
distribution of fluorescent peptide signal in brain sections ([8]; BT025 tumor, intracarotid injection): binds primarily to cells that are diffusely spread outside the main tumor mass
fluorescent signal in whole brain imaging of tumor ([8]; intracarotid injection, approximately half an hour circulation, Olympus OV100): appears strongly in part of the tumor, but clearly does not detect all tumor cells present
localization of peptide conjugate in human GBM tissue in vivo (summary) ([8]; intravenous administration, BT025 tumor (general statements also cover U87MG tumors)): can localize in human GBM tissue in vivo
number of phage subclones containing that sequence [9]: 25/50
